Data published in US20150105252A1, “SUBSTITUTED PYRAZOLES AS HERBICIDES” (E I DU PONT DE NEMOURS AND COMPANY, priority 2013, published 2015).

How the values were obtained:
[1] = system: chamomile; experiment: Test D preemergence; format: in vivo, Matricaria inodora; settings: scale 0 to 100
Excerpt: Seeds of plant species selected from bluegrass (annual bluegrass, Poa annua), blackgrass (Alopecurus myosuroides), canarygrass (littleseed canarygrass, Phalaris minor), chickweed (common chickweed, Stellaria media), galium (catchweed bedstraw, Galium aparine), bromegrass, downy (downy bromegrass, Bromus tectorum), field poppy (Papaver rhoeas), field violet (Viola arvensis), foxtail, green (green foxtail, Setaria viridis), deadnettle (henbit deadnettle, Lamium amplexicaule), ryegrass, Italian (Italian ryegrass, Lolium multiflorum), kochia (Kochia scoparia), lambsquarters (Chenopodium album), oilseed rape (Brassica napus), pigweed (redroot pigweed, Amaranthus retroflexus), chamomile (scentless chamomile, Matricaria inodora), speedwell (bird's-eye speedwell, Veronica persica), barley, spring (spring barley, Hordeum vulgare), wheat, spring (spring wheat, Triticum aestivum), buckwheat, wild (wild buckwheat, Polygonum convolvulus), mustard, wild (wild mustard, Sinapis arvensis), oat, wild (wild oat, Avena fatua), radish, wild (wild radish, Raphanus raphanistrum), windgrass (Apera spica-venti), Russian thistle (Salsola kali), barley, winter (winter barley, Hordeum vulgare), and wheat, winter (winter wheat, Triticum aestivum) were planted into a silt loam soil and treated preemergence with test chemicals formulated in a non-phytotoxic solvent mixture which included a surfactant.
At the same time, these species were planted in pots containing Redi-Earth® planting medium (Scotts Company, 14111 Scottslawn Road, Marysville, Ohio 43041) comprising spaghnum peat moss, vermiculite, wetting agent and starter nutrients and treated with postemergence applications of the test chemicals formulated in the same manner. Plants ranged in height from 2 to 18 cm (1- to 4-leaf stage). Treated plants and controls were maintained in a controlled growth environment for 14 to 21 days after which time all species were compared to controls and visually evaluated. Plant response ratings, summarized in Table D, are based on a scale of 0 to 100 where 0 is no effect and 100 is complete control. A dash (-) response means no test result.

[2] = system: pigweed, palmer; experiment: Test F postemergence; format: in vivo, Amaranthus palmeri; settings: scale 0 to 100
Summary of the method: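 Percent-control style visual scores, from 0 (no effect) to 100 (complete control), were given relative to controls. Treatment timing: preemergence on silt loam plantings, or postemergence at 1- to 4-leaf stage. Evaluation came 14 to 21 days after spraying, greenhouse conditions.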

[3] = system: dayflower, VA; experiment: Test E preemergence; format: in vivo, Commelina virginica; settings: 21 days, scale 0 to 100
Excerpt: (§1) Seeds of plant species selected from bermudagrass (Cynodon dactylon), Surinam grass (Brachiaria decumbens), crabgrass, large (large crabgrass, Digitaria sanguinalis), crabgrass, naked (naked crabgrass, Digitaria nuda), foxtail, green (green foxtail, Setaria viridis), johnsongrass (Sorghum halepense), kochia (Kochia scoparia), morningglory (pitted morningglory, Ipomoea lacunosa), nutsedge, purple (purple nutsedge, Cyperus rotundus), ragweed (common ragweed, Ambrosia elation), mustard, black (black mustard, Brassica nigra), guineagrass (Panicum maximum), dallisgrass (Paspalum dilatatum), barnyardgrass (Echinochloa crus-galli), sandbur (southern sandbur, Cenchrus echinatus), sowthistle (common sowthistle, Sonchus oleraceous), ryegrass, Italian (Italian ryegrass, Lolium multiflorum), signalgrass (broadleaf signalgrass, Brachiaria platyphylla), dayflower, VA (Virginia (VA) dayflower, Commelina virginica), bluegrass (annual bluegrass, Poa annua), quackgrass (Elytrigia repens), mallow (common mallow, Malva sylvestris), buckwheat, wild (wild buckwheat, Polygonum convolvulus), leafy spurge (Euphorbia esula), common chickweed (Stellaria media), wild poinsettia (Euphorbia heterophylla), pigweed, palmer (palmer pigweed, Amaranthus palmeri), and pigweed (redroot pigweed, Amaranthus retroflexus) were planted into a blend of loam soil and sand and treated preemergence with test chemicals formulated in a non-phytotoxic solvent mixture which included a surfactant.
(§2) Treated plants and controls were maintained in a greenhouse for 21 days, after which time all species were compared to controls and visually evaluated. Plant response ratings, summarized in Table E, are based on a scale of 0 to 100 where 0 is no effect and 100 is complete control. A dash (-) response means no test result.

[4] = system: crabgrass, large; experiment: Test E preemergence; format: in vivo, Digitaria sanguinalis; settings: 21 days, scale 0 to 100
Excerpt: as §1, §2

[5] = system: signalgrass; experiment: Test E preemergence; format: in vivo, Brachiaria platyphylla; settings: 21 days, scale 0 to 100
Excerpt: as §1, §2

Compound: CCCc1cc(C(=O)NCC(F)(F)F)nn1Cc1cc(C(F)(F)F)nn1C [Compound 138]
- Plant response rating, Chamomile ([1]; 31 g ai/ha): 0
- Plant response rating, Chamomile ([1]; 62 g ai/ha): 95
- Plant response rating, Chamomile ([1]; 125 g ai/ha): 100
- Plant response rating, Chamomile ([1]; 250 g ai/ha): 100

Compound: CCOc1cc(C(=O)NC(C)C)nn1Cc1ccnc(C(F)(F)F)c1 [Compound 188]
- Plant response rating, Pigweed, Palmer ([2]; Postemergence, 31 g ai/ha): 50
- Plant response rating, Pigweed, Palmer ([2]; Postemergence, 125 g ai/ha): 50
- Plant response rating, Pigweed, Palmer ([2]; Postemergence, 250 g ai/ha): 60
- Plant response rating, Pigweed, Palmer ([2]; postemergence, 62 g ai/ha): 50
- Plant response rating, Pigweed, Palmer ([2]; postemergence, 500 g ai/ha): 70
- Plant response rating, Chamomile ([1]; 31 g ai/ha): 100
- Plant response rating, Chamomile ([1]; 62 g ai/ha): 100
- Plant response rating, Chamomile ([1]; 125 g ai/ha): 100
- Plant response rating, Chamomile ([1]; 250 g ai/ha): 100

Compound: CCOc1cc(C(=O)NC2CC2)nn1Cc1ccnc(C(F)(F)F)c1 [Compound 189]
- Plant response rating, Dayflower, VA ([3]; 4 g ai/ha): 0
- Plant response rating, Dayflower, VA ([3]; 8 g ai/ha): 30
- Plant response rating, Dayflower, VA ([3]; 16 g ai/ha): 90
- Plant response rating, Dayflower, VA ([3]; 31 g ai/ha): 100
- Plant response rating, Dayflower, VA ([3]; 62 g ai/ha): 100
- Plant response rating, Crabgrass, Large ([4]; 4 g ai/ha): 0
- Plant response rating, Crabgrass, Large ([4]; 8 g ai/ha): 95
- Plant response rating, Crabgrass, Large ([4]; 16 g ai/ha): 100
- Plant response rating, Crabgrass, Large ([4]; 31 g ai/ha): 100
- Plant response rating, Crabgrass, Large ([4]; 62 g ai/ha): 100
- Plant response rating, Signalgrass ([5]; 4 g ai/ha): 0
- Plant response rating, Signalgrass ([5]; 8 g ai/ha): 30
- Plant response rating, Signalgrass ([5]; 16 g ai/ha): 60
- Plant response rating, Signalgrass ([5]; 31 g ai/ha): 95
- Plant response rating, Signalgrass ([5]; 62 g ai/ha): 100
- Plant response rating, Chamomile ([1]; 31 g ai/ha): 65
- Plant response rating, Chamomile ([1]; 62 g ai/ha): 100
- Plant response rating, Chamomile ([1]; 125 g ai/ha): 100
- Plant response rating, Chamomile ([1]; 250 g ai/ha): 100
